How the values were obtained:
[1] = Cell viability test in MTT; assay type: cell-based, human; details: human, SH-SY5Y neuroblastoma cells, 96 h of incubation, read-out: reduction of cell viability
Protocol: Cells from SH-SY5Y human neuroblastomas were cultured in a DMEM medium containing 4.5 g·L^−1 glucose, 10% fetal calf serum, and 1% penicillin/streptomycin, and placed in an incubator at 37° C. with 7% CO2.
In the various experiments, the SH-SY5Y cells were seeded at a density of 4×10^4 cells/mL. 24 h after seeding, the cells were exposed to the various test compounds at 37° C. for 24 h, 48 h, 72 h, or 96 h.
This test consisted of rapidly measuring cellular metabolic activity in the presence of the study compound at different concentrations, in order to conduct a dose-response study. To do this, the tetrazolium salt MTT, 3-(4,5-dimethylthiazol-2-yl)-2,5-diphenyltetrazolium bromide (Amoroso et al., Biochim Biophys Acta, 1999, 1452(2):151-60), was placed in contact with the cells. MTT is reduced to formazan by living cells that have the capacity to metabolize it, unlike dead cells. To conduct this test, SH-SY5Y neuronal cells in 48-well plates were incubated for 24 h, 48 h, 72 h, and 96 h, with furosemide pyridinium at concentrations ranging from 0 to 1000 μM. Then MTT (0.5 mg/ml final) was added to each well and incubated at 37° C. for 2 h. At the end of incubation, after carefully removing the medium, DMSO was added (200 μL) to dissolve the cell membranes and the formazan crystals formed by the living cells. The toxicity of the molecule was evaluated by determining the amount of reduced MTT, doing so by measuring the absorbance at 550 nm as this value is proportional to the number of living cells. The results were expressed as a function of the values obtained for cells treated only with the solvent used to dissolve the compound of interest. To compare the toxicity of furosemide pyridinium to that of MPP+, the cells were incubated in the presence of MPP+ (0 to 1000 μM) for 6 h. The culture medium was replaced and the cells were incubated at 37° C. for an additional 24 h (no MPP+). Cell survival was measured at the end of these 24 hours of incubation as described above. When evaluating the effect of different concentrations of α-tocopherol (vitamin E), a membrane antioxidant, the cells were pretreated for 24 h with this antioxidant before being exposed to furosemide pyridinium at a concentration of 0.5 mM under the same experimental conditions as above.

[2] = test system: mitochondrial respiratory chain; experiment: Respiratory chain activity of mitochondria from striata of exposed mice; assay type: in vivo, mouse; details: 20 mg/kg/day oral 7 days, 30 days after end of exposure
Protocol: Added to the polarography chamber (Hansatech) were 30 μl of mitochondria solution (0.2 mg), 460 μL of respiration buffer, 5 μl of test compound solution (meaning MPP+ or furosemide pyridinium) (or its solubilizing solvent). Then 5 μl of a 10/10 mM mixture of malate-pyruvate substrates were added, which allowed the respiratory chain to function (stage 2) starting from complex I. After about 40 seconds, 5 μl of 200 μM ADP were added, resulting in an increase in oxygen consumption as the ADP activated complex V (stage 3). Once all the ADP was consumed, the oxygen consumption returned to an initial stage (stage 4) that is equivalent to stage 2. The effect of the compound on respiratory control was evaluated (ratio of stage 3 to 4), which corresponds to the coupling of the respiratory chain, or in other words the ATP synthesis at complex V and the oxygen consumption due to complexes I to IV. The results are expressed as percentages of the value measured for mitochondria not treated with the test compound (but treated with the solubilizing solvent).
Swiss mice were divided into two groups of five animals (experimental and control). The experiments were performed independently two times. The mice of the experimental group were exposed to furosemide pyridinium for 7 days at a daily dose of 20 mg/kg. The furosemide pyridinium was administered orally in the drinking water. […]

α-synuclein = experiment: Cellular accumulation of α-synuclein (Western blot) in SH-SY5Y cells; assay type: cell-based, human; details: 1 mM, 96 h incubation
Protocol: Cells were incubated under the same conditions as above with furosemide pyridinium (1 mM, incubation: 96 h) and MPP+ (1 mM, incubation: 6 h, wait 24 h). After incubation, the cells were trypsinized, rinsed with PBS, counted, then harvested in 100 μl of buffer containing: 250 mM sucrose; 70 mM KCl; 137 mm NaCl; 4.3 mm NaH2PO4; 1.4 mm KH2PO4, pH 7.2; and […] digitonin. Incubation at 4° C. was then conducted for 5 minutes before centrifuging at 13,000 g for 5 minutes to separate the cytosolic and lysosomal fraction from the mitochondrial fraction. Deposits of cytosolic fraction in the Western blot were adjusted according to the number of cells. The protein samples were diluted in 4× Laemmli and were then heated for 3 minutes at 95° C. to denature. They were loaded into the wells of gel. In addition to the samples, a molecular weight marker (Fermentas) was deposited in the gel. […] The transfer was carried out on PVDF membrane. The transfer was done in transfer buffer (25 mM Tris, 192 mM glycine, 10% methanol) overnight at 4° C. and 30V or for 2 hours at 4° C. and 80V. […] Then the membranes were immunolabeled for 1.5 h at room temperature with a primary antibody diluted in 1×PBS/0.2% Tween/3% milk. […] The primary antibody used was anti-α-synuclein, 1:500 (visualized with an anti-rabbit secondary antibody, 1:10,000).

rats = experiment: Lethality of 7-day oral administration in rats; assay type: in vivo, rat; details: daily dose of 20 mg/kg for seven days
Protocol: A platform for electrophysiological and behavioral monitoring of the rats was used. For this, a subcutaneous implant (Data Science) was placed in the rats which allowed the EEG to be recorded by telemetry, leaving the animal completely free to move about. The cage was equipped with a video camera (10 frames per second) and an infrared light to allow recordation of the animal's activity. The EEG and video sequences were recorded in sequences of 10 seconds, and a set of variables was calculated for each sequence. The use of dedicated software allowed integration of these variables over the entire recording to detect changes in the animal's activity, EEG, and circadian rhythms. Each animal served as its own control because it was recorded for 5 days prior to furosemide pyridinium administration. The solution of furosemide pyridinium (20 mg) was dissolved in dimethylsulfoxide (DMSO, 200 μl) and then diluted with water (50 ml). The solution was replaced every day and administered for 7 days in the drinking water at a dose of 20 mg/kg. The rats were then sacrificed 5 weeks after the last dose. The rats were anesthetized with pentobarbital and infused intracardially with saline ([…]), then fixed with 4% paraformaldehyde. After the infusion, the brain was removed and placed in NaCl (0.9%) at 4° C. The brain was frozen in Tissue Tek immersed in a cold isopentane bath. […]

Which cytotoxicity at 96 h [1] does the source give for NS(=O)(=O)c1cc(C(=O)[O-])c(-[n+]2cccc(O)c2)cc1Cl [furosemide pyridinium, 4-chloro-2-(3-hydroxypyridinium-1-yl)-5-sulfamoylbenzoate] here?
Its cytotoxicity at 96 h is roughly 60%.

What about the “decrease in respiratory control of striatal mitochondria vs control animals” value [2] of the same compound?
Its value is 28%.

And the “increase in the total amount of α-synuclein compared to control cells” value (α-synuclein)?
Its value is 40%.

What about the lethality (rats) of the same compound?
The lethality was “not lethal”.
